In ChEMBL document CHEMBL1125619, “Effect of fluorine substitution on the adrenergic properties of 3-(tert-butylamino)-1-(3,4-dihydroxyphenoxy)-2-propanol” (J Med Chem, 1991):

Legend:
[1] = target: Beta-1 adrenergic receptor (Rattus norvegicus, UniProt P18090)
Description: Compound was evaluated for the inhibition of binding of [3H]dihydroalprenolol from beta-1 adrenergic receptor of rat cerebral cortical membranes

[2] = target: Beta-1 adrenergic receptor (Cavia porcellus, UniProt B0FL73); assay: Agonistic activity (beta-1 adrenergic receptor) for the percent maximal increase in contraction rate of isolated guinea pig atria; format: functional
[3] = target: Beta-2 adrenergic receptor (Cavia porcellus, UniProt Q8K4Z4); assay: Agonistic activity (beta2- adrenergic) for the percent maximal relaxation of isolated guinea pig trachea; format: functional, tissue-based
Chain of Beta-2 adrenergic receptor (Q8K4Z4 whole entry): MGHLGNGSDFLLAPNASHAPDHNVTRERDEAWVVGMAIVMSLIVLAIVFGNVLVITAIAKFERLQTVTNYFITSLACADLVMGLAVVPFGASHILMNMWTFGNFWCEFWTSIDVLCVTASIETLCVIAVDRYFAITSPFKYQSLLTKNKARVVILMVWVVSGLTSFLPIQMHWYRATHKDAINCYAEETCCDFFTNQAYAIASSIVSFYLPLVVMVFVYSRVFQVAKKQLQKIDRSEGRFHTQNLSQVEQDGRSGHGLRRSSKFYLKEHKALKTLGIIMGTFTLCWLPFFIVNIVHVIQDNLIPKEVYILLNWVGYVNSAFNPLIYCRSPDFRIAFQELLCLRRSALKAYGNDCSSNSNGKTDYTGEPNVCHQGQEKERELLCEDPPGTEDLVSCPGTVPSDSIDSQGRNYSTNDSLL

Adrenergic receptor beta = Adrenergic receptor beta (Rattus norvegicus, UniProt P18090+P10608+P26255); assay: Beta adrenergic receptor agonistic activity for the stimulation of accumulation of cyclic AMP in cultured C6 glioma cells; format: functional, cell-based

Chain of Beta-1 adrenergic receptor (Cavia porcellus, UniProt B0FL73) (B0FL73 whole entry): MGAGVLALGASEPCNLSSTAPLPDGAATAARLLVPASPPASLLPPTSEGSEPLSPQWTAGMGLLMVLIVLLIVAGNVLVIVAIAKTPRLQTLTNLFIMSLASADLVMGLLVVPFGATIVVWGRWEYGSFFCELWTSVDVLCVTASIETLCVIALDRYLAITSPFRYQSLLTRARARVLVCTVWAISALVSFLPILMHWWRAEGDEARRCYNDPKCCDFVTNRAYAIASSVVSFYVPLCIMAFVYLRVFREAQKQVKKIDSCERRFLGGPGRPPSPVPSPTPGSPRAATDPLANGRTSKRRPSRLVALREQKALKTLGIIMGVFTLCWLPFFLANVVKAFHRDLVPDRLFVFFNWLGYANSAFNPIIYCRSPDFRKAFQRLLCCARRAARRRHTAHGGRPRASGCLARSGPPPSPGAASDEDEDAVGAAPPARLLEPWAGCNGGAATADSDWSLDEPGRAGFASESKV
Chain of Beta-1 adrenergic receptor (Rattus norvegicus, UniProt P18090) (P18090 whole entry): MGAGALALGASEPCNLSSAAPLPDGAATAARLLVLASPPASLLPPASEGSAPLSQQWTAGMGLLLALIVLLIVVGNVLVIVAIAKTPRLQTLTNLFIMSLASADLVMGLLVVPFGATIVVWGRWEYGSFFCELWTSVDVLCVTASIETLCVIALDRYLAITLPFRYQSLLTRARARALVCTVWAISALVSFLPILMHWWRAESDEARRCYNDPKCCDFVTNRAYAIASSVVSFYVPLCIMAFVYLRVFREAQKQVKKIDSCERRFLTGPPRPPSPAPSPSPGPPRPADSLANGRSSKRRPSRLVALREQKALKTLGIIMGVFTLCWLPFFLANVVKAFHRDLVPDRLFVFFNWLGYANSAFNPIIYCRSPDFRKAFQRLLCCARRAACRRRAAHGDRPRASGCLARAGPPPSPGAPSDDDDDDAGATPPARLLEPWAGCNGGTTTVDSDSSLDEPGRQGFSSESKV

CC(C)(C)NCC(O)COc1ccc(O)c(O)c1F (stereo not drawn)
Ki [1]: 60 nM | EC50 [2]: 8.6 nM | EC50 [3]: 38 nM | EC50 (Adrenergic receptor beta): 9.2 nM

CC(C)(C)NCC(O)COc1cc(O)c(O)cc1F (stereo not drawn)
Ki [1]: 87000 nM | EC50 [2]: 175 nM | EC50 [3]: > 10000 nM | EC50 (Adrenergic receptor beta): >> 10000 nM

CC(C)(C)NCC(O)COc1ccc(O)c(O)c1 (stereo not drawn)
Ki [1]: 120 nM | EC50 [2]: 4.7 nM | EC50 [3]: 130 nM | EC50 (Adrenergic receptor beta): 8.2 nM

CC(C)NCC(O)c1ccc(O)c(O)c1 (stereo not drawn) [ISOPROTERENOL]
EC50 [3]: 58 nM
